From patent publication US8969312B2, “Low side effect pharmaceutical composition containing antituberculosis drugs” (priority 2011, dated 2015) come the findings set out here.

The inhibition is the change of the read-out against control, counted positive when it falls.

Series [1] deals with human liver microsomal cytochrome P450 2E1 (CYP2E1) (Homo sapiens, UniProt P05181). Kind of series: Human liver microsomal CYP2E1, chlorzoxazone 6-hydroxylation.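 Further: chlorzoxazone added as substrate, 6-hydroxychlorzoxazone formation quantified by LC/MS/MS after 30 min at 37 °C with NADP+ regenerating system, compared against solvent control without test sample.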 For orientation: Liver microsomes are a subcellular fraction often used to study metabolism.
Experimental: (§1) Microsomes prepared from human liver were used to extract cytochrome P450 2E1 (CYP2E1) and CYP2E1 inhibitors were screened from 39 Chinese medicine guiding drugs and 10 excipients. Chlorzoxazone hydroxylation is a reaction catalyzed primarily by CYP2E1 in liver. The extracted human liver microsomal cytochrome P450 2E1 (CYP2E1) was mixed with its substrate, Chlorzoxazone, and test sample was then added Inhibition of CYP2E1 activity was calculated by measuring CYP2E1 standard metabolite, 6-OH-CZX (6-Hydroxy-Chlorzoxazone), and compared with control 6-OH-CZX.
(§2) After incubation, 16 mM Chlorzoxazone and test samples were added to experimental groups; methanol:sterilized water at 1:1 ratio was added to control groups and DDTC was added to positive control groups,
(§3) Finally, cofactor 1 mM NADP^+, 10 mM G6P and 2 IU G6PD were added and reaction mixtures were transferred to pre-incubation 37° C. water bath for 1 mM and activity was measured after 30 min of reaction
(§4) At the end of reaction, 500 μl acetonitrile was added to stop the reaction followed by 5 g/mL 4-hydroxy-tobutamide after 1 mM incubation. The mixture was then centrifuged and 20 L of supernatant was diluted ten times with methanol/sterilized water and 5 L was used for LC/MS/MS analysis. […] The inhibition of CYP2E1 was then calculated by the following equation:
Series [2] concerns the target cytochrome P450 2E1 (CYP2E1) (Homo sapiens, UniProt P05181). As to the kind of experiment: CYP2E1 High Throughput Inhibitor Screening Kit, cDNA synthesized microsomal CYP2E1 (MFC to HFC). To be noted: for Minimum Effective Dose: Table 3, minimum tested concentration (mg/L) × volume of human liver and intestine (3L). An excerpt: CYP2E1 High Throughput Inhibitor Screening Kit (BD Bioscience, USA) was used to screen the cytochrome P450 (CYP2E1) inhibitors from 22 Chinese medicine guiding drugs and 10 excipients and microsomal cytochrome P450 (CYP2E1) was synthesized from cDNA (BD Bioscience, USA). The principle of the screening kit is to measure the percentage of CYP2E inhibition, after adding the test sample to substrate MFC (7-Methoxy-4-trifluoromethyl coumarin) and cytochrome P450 (CYP2E1), by measuring the synthesis of standard CYP2E1 metabolite (HFC, 7-Hydroxy-4-trifluoromethyl coumarin) and use control HFC as baseline.
a. 149 μl NADPH-Cofactor Mix and 1 μl 20 mM DDTC were added to the #1 well in a 96-well plate and mixed thoroughly,
b. Add 100 μl Cofactor/acetonitrile mix to #2 to #12 wells, and well #1 to #8 are positive control. Well #9 and 10 are control and well #11 and #12 are blank,
c. […] Preparation of Experimental Groups: a. […] Transfer 50 μl from well #1 and #2 and added to well #3 and mixed thoroughly (triplicate for each sample), 3. Initiation and Termination of the Reaction: a. The 96-well plate was incubated at 37° C. for […], b. 100 μl of Enzyme/Substrate Mix was added to every well and mixed thoroughly except the blank wells, c. The 96-well plate was incubated at 37° C. for 40 min, d. 75 μl Stop Solution was added to every well and mixed thoroughly, e. Immediately add 100 μl Enzyme/Substrate Mix to blank wells and mixed thoroughly, f. Measure with a Fluoroskan Ascent FL (Thermo Electron Corporation, Finland) with excitation at 405 nm and emission at 538 nm, 4. The fluorescence was transverse into CYP 2E1 metabolite standard (HFC) concentration (pmol) and the percentage (%) of CYP 2E1 inhibition was calculated using control as baseline by following equation: […]

Series [3] has as its system amidase. Kind of series: Mouse liver microsomal amidase, isoniazid to isonicotinic acid. Type of series: biochemical. An excerpt: Mouse liver microsomes were used as the source of amidase, and isoniazid was used as the amidase metabolism drugs. quantitative isoniazid was catalyzed into metabolites isonicotinic acid (INA) by amidase, and was used as the index for measurement of the amidase activity for establishment of the platform for screening in vitro amidase activity inhibitors. The HPLC system includes a Shimadzu the LC-LOAD pump, 1 Shimadzu system control and a Shimadzu autosampler (Shimadzu Scientific Instrument, Japan). A C18 column (particle size 5 μm, inner diameter of 50×4.6 mm, 25 cm) containing 70% methanol and 30% ammonium formate (50 mM, pH=2.5) of the mobile phase for HPLC separation, and the experimental steps are outlined as follows:
(2) An aliquot of 150 μL mouse liver microsomal solution was added to 100 μL isoniazid solution in 35 μL 67 mM potassium phosphate buffer solution ([…], pH=7) with a final concentration at 3 mM, and then mixed thoroughly with 15 μL amidase inhibitor (deionized water was added in the control group). (3) Incubation at 37° C. water bath for 30 minutes. (4) An aliquot of 300 μL acetonitrile (ACN) was added and mixed thoroughly, and incubated for 6 minutes. (5) An aliquot of 30 μL perchloric acid was then mixed and incubated for 6 minutes. (6) The mixture was centrifuged at 13000 g for 6 minutes. (7) After centrifugation, 100 μL of the supernatant was injected into HPLC. (8) Methanol ammonium formate (50 mM, pH=2.5)=70:30 (V/V) was selected as the mobile phase, and the flow rate was controlled at […] and detected at 270 nm UV. […] The amidase inhibition % was then calculated using the following formula: […]

Series [4] addresses CYP2E1 (Homo sapiens, UniProt P05181). As to the kind of experiment: Human liver microsomal CYP2E1, chlorzoxazone 6-hydroxylation.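 Further: chlorzoxazone added as substrate, 6-hydroxychlorzoxazone formation quantified by LC/MS/MS after 30 min at 37 °C with NADP+ regenerating system, compared against solvent control without test sample.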 The conditions noted are these: human.
Experimental: as §1, §2, §3, §4
[5] abbreviates: Table 6, minimum tested concentration (mg/L) × volume of human liver and intestine (3 L).
The mark [6] stands for this setting: human liver microsomes, pH 7.4, probe Chlorzoxazone.

Structures are written as SMILES.

CYP2E1, sequence (P05181 whole entry): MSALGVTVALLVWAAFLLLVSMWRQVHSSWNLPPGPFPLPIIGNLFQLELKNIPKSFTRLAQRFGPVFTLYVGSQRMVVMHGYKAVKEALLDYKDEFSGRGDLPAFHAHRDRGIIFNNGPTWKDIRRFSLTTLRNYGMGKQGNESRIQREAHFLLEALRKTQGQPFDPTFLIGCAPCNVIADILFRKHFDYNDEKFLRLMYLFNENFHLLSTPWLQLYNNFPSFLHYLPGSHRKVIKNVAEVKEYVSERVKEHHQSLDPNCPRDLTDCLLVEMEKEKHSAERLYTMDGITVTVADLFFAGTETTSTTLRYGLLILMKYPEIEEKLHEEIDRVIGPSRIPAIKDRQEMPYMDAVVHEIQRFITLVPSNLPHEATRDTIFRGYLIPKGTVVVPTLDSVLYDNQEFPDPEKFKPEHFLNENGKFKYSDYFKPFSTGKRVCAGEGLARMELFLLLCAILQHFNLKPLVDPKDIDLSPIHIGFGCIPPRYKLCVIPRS
cytochrome P450 2E1 (CYP2E1), sequence (P05181 whole entry): as above
human liver microsomal cytochrome P450 2E1 (CYP2E1), sequence (P05181 whole entry): as above

`O=C1C[C@@H](c2ccc(O)cc2)Oc2cc(O)cc(O)c21` [Narigenin]: the “Minimum Effective Dose” value in series [1] (setting [5]) and in series [2] was 9 mg in each case.

On to `CCCCCCCCCCCC1=C(O)C(=O)C=C(O)C1=O` [Embelin], for which the “Minimum Effective Dose” value in series [2] is given as 16 mg.

In the case of `O=C(CCc1ccc(O)cc1)c1c(O)cc(O)cc1O[C@@H]1O[C@H](CO)[C@@H](O)[C@H](O)[C@H]1O` [Phloridzin], the “Minimum Effective Dose” value in series [2] came to 24 mg.

As for `Oc1cc(O)c2c(c1)O[C@H](c1ccc(O)c(O)c1)[C@@H](O)C2` [(+)-Catechin], the Amidase inhibition is recorded as −2.1 ± 1.1% in series [3] (1 uM), −11.8 ± 20.2% in series [3] (10 uM) and 1.3 ± 6.3% in series [3] (100 uM). The results for the “Inhibition of CYP 2E1” value in series [2] (16.5 μM) and in series [2] (66 μM) were 41.53% and 16.45%, respectively. Further, in series [2], the “Minimum Effective Dose” value amounted to 16 mg.

In the case of `CC(Cc1ccc(O)c(O)c1)C(C)Cc1ccc(O)c(O)c1` (stereo not drawn) [Nordihydroguaiaretic acid], the “Minimum Effective Dose” value in series [1] (setting [5]) and in series [2] was 17 mg throughout.

As for `O=c1cc(-c2ccccc2)oc2ccc3ccccc3c12` [β-naphthoflavone], the “Inhibition of CYP 2E1” value is 6.52% in series [2] (16.5 μM) and 15.40% in series [2] (66 μM). For the same compound, the “Minimum Effective Dose” value in series [2] amounted to 15 mg.

Consider `Oc1cc(O)c2c(c1)O[C@H](c1ccc(O)c(O)c1)[C@H](O)C2` [(−)-Epicatechin], for which the Amidase inhibition in series [3] (1 uM) is given as −25.8 ± 6.2%; in series [3] (10 uM) it was −4.8 ± 10.5%; in series [3] (100 uM), 3.6 ± 4.3%. The “Inhibition of CYP 2E1” value in series [2] (16.5 μM) was 18.27%; in series [2] (66 μM), 2.57%. Besides, the “Minimum Effective Dose” value in series [2] amounted to 16 mg.

`O=c1c(-c2ccc(O)cc2)coc2c([C@@H]3O[C@H](CO)[C@@H](O)[C@H](O)[C@H]3O)c(O)ccc12` [Puerarin]: the results for the Amidase inhibition in series [3] (1 uM), in series [3] (10 uM) and in series [3] (100 uM) were 40.9 ± 3.6%, 33.0 ± 3.3% and 17.9 ± 7.2%, respectively. Besides, the “Minimum Effective Dose” value in series [2] is reported as 23 mg.

Take `COc1c(O)cc2oc(Oc3ccc(O)cc3)cc(=O)c2c1O` [Capillarisin]: the Amidase inhibition in series [3] (1 uM) is −4.1 ± 8.1%; in series [3] (10 uM), 18.2 ± 3.7%; in series [3] (100 uM) it was 45.7 ± 4.2%. In addition, the “Inhibition of CYP 2E1” value is given as 32.89 ± 2.46% in series [1] (16.5 μM); 46.22 ± 2.65% in series [1] (33 μM); 57.31 ± 1.31% in series [1] (66 μM); 49.05% in series [2] (16.5 μM); 76.12% in series [2] (66 μM). Besides, the “Minimum Effective Dose” value in series [1] (setting [5]) and in series [2] was 17 mg each time.

Regarding `O=c1ccc2ccc(O)cc2o1` [Umbelliferone], the Amidase inhibition is 24.1 ± 11.6% in series [3] (1 uM), −1.0 ± 13.2% in series [3] (10 uM) and 33.5 ± 8.2% in series [3] (100 uM). In series [2], the “Minimum Effective Dose” value is listed as 9 mg.

For the compound `CCCCC[C@H](O)CC(=O)CCc1ccc(O)c(OC)c1` [6-Gingerol], the Amidase inhibition in series [3] (1 uM) is listed as −8.2 ± 9.0%; in series [3] (10 uM) it was 0.5 ± 0.7%; in series [3] (100 uM) it was 22.6 ± 3.4%. The “Minimum Effective Dose” value in series [1] (setting [5]) and in series [2] was 16 mg throughout.

In the case of `O=C(O)/C=C/c1ccccc1` [trans-Cinnamic acid], the Amidase inhibition in series [3] (1 uM) was −11.9 ± 2.3%; in series [3] (10 uM), −1.4 ± 0.6%; in series [3] (100 uM), 12.6 ± 1.7%. Besides, in series [2], the “Minimum Effective Dose” value is 8 mg.

As for `COc1ccc([C@@H]2CC(=O)c3c(O)cc(O)cc3O2)cc1O` [Hesperetin], the Amidase inhibition in series [3] (1 uM) was −40.5 ± 24.8%; in series [3] (10 uM), 5.4 ± 2.5%; in series [3] (100 uM), 19.0 ± 3.6%. In addition, the entries for the “Minimum Effective Dose” value in series [1] (setting [5]) and in series [2] were 17 mg and 33 mg, respectively.

On to `O=C1c2c(O)cc(O)cc2O[C@H](c2ccc(O)c(O)c2)[C@H]1O` [(+)-Taxifolin], for which the Amidase inhibition was found to be 36.8 ± 11.5% in series [3] (1 uM), 32.2 ± 5.8% in series [3] (10 uM) and 36.4 ± 3.4% in series [3] (100 uM). Further, the “Minimum Effective Dose” value in series [2] was 17 mg.

For `O=C(O)c1cc(O)c(O)c(O)c1` [gallic acid], the Amidase inhibition is reported as 12.0 ± 5.5% in series [3] (1 uM), 20.0 ± 5.1% in series [3] (10 uM) and −20.2 ± 26.5% in series [3] (100 uM). The “Minimum Effective Dose” value in series [1] (setting [5]) and in series [2] was 9 mg each time.

With `O=C(O)c1ccc(O)c(O)c1` [Protocatechuic acid], the Amidase inhibition in series [3] (1 uM) is on record as 11.5 ± 4.0%; in series [3] (10 uM) it was 10.9 ± 2.0%; in series [3] (100 uM), 15.7 ± 8.1%. The “Minimum Effective Dose” value in series [2] is recorded as 8 mg.

For `CC1=CC(=O)NS(=O)(=O)O1` [Acesulfame K], the values for the Amidase inhibition in series [3] (0.0005%), in series [3] (0.005%) and in series [3] (0.05%) were −12.4 ± 27.4%, −167.2 ± 167.3% and 24.3 ± 4.9%, respectively. The “Minimum Effective Dose” value in series [1] (Table 7) is 10 mg. Besides, in series [4] (setting [6]), the inhibition at 30 min, 0.08 % (w/v) is 7.1 ± 2.3%. The same compound returned an inhibition at 30 min, […] (w/v) in series [4] (setting [6]) of 3.9 ± 2.7%. Further, the inhibition at 30 min, 0.167 % (w/v) in series [4] (microsomes, pH 7.4) stood at 14.5 ± 1.9%.

With `O=C(CCc1ccc(O)cc1)c1c(O)cc(O)cc1O` [Phloretin], the Amidase inhibition in series [3] (1 uM) came to 16.5 ± 14.3%; in series [3] (10 uM), 9.8 ± 5.4%; in series [3] (100 uM), 29.9 ± 8.1%. The “Minimum Effective Dose” value in series [1] (setting [5]) and in series [2] was 15 mg in each case.
